Read-outs that look alike come from different tables or passages of the source.
How the values were obtained:
[1] = test system: ECG intervals in patients with advanced solid tumors; conditions: human, in vivo
Description: (§1) On day − 2, patients underwent dECG to determine eligibility by central review. On day − 1, baseline dECG assessments were performed at clock times matched to the planned/scheduled dECG assessment times on days 1 and 3. […] Doses were administered under fasting conditions (2 h pre-dose to 2 h post-dose), with prescribed anti-emetic(s) given orally 30 min prior to each dose [20].
(§2) Patients had their final dECG/PK assessments on day 4, 24 h post-dose. Baseline for dECG assessments was defined as the time-matched observation on day − 1. Triplicate dECG recordings were taken within an approximate 5-min period prior to PK sample collection and as close to the scheduled times as possible. Patients rested for ≥ 10 min prior to dECG recording and were in the same supine body position for all recordings. HR and RR, QT, PR, and QRS interval parameters were recorded. Standardized equipment was provided by the central ECG laboratory. Recorded dECGs were sent to the central ECG laboratory for review and interpretation, using their standard operating procedures and with manual adjudication (3 beat on lead II).

patients = test system: patients; parameters: method as in AstraZeneca, data on file, 2022; conditions: preliminary data; ref AstraZeneca, data on file, 2022; cited from earlier work
[2] = test system: ECG intervals in patients with advanced solid tumors; assay: Digital 12-lead ECG (dECG) assessments, time-matched change from baseline; conditions: over the treatment period (days 1–3, 24 h post-dose)
Description: as §1, §2

[3] = parameters: method as in doi:10.1158/1538-7445.am2019-ct012; conditions: after 200 mg bid dosing; cited from earlier work
[4] = Plasma pharmacokinetics of adavosertib
[5] = test system: patients with advanced solid tumors; conditions: cited from earlier work
[6] = test system: patients with advanced solid tumors; conditions: human, in vivo
Description: (§3) Safety was appraised throughout the study by the assessment of adverse events (AEs; graded by Common Terminology Criteria for Adverse Events [CTCAE], version 4.03), physical examination, and evaluation of vital signs, ECG, and laboratory data (clinical chemistry and hematology). Dose reductions were not allowed.

[7] = test system: QTcF interval in patients with advanced solid tumors; conditions: human, in vivo
Description: Estimates were made of the mean change in QTcF at the geometric mean Cmax on days 1 and 3 from the fitted model, with corresponding 90% two-sided confidence intervals (CIs).

[8] = test system: patients with advanced solid tumors; assay: Safety and tolerability (adverse events, CTCAE version 4.03); conditions: n = 21
Description: as §3

QTc interval = conditions: in vivo; cited from earlier work
[9] = human, in vivo, 225 mg, 2.5 days

Structure (SMILES): C=CCn1c(=O)c2cnc(Nc3ccc(N4CCN(C)CC4)cc3)nc2n1-c1cccc(C(C)(C)O)n1 [adavosertib]
- Mean change in HR, range over time points ([1]; 1 day): − 1.7 to 2.9
- Mean change in PR interval, range over time points ([1]; 1 day): − 4.4 to 3.5
- Mean change in QRS interval, range over time points ([1]; 1 day): − 1.2 to 1.4
- Mean change in RR interval, range over time points ([1]; 1 day): − 38.0 to 22.3
- Patients with QTcF increase > 60 ms at any time during treatment ([1]; 1 day): 0 n (%)
- Patients with QTcF value > 450 ms and increase > 30 ms ([1]; 1 day): 0 n (%)
- Patients with QTcF value > 450 ms at any time during treatment ([1]; 1 day): 0 n (%)
- Patients with QTcF value > 480 ms at any time during treatment ([1]; 1 day): 0 n (%)
- Patients with QTcF value > 500 ms and increase > 60 ms ([1]; 1 day): 0 n (%)
- Patients with QTcF value > 500 ms at any time during treatment ([1]; 1 day): 0 n (%)
- Mean change in HR, range over time points ([1]; 3 day): 1.4 to 9.5 bpm
- Mean change in PR interval, range over time points ([1]; 3 day): − 4.4 to 0.3
- Mean change in QRS interval, range over time points ([1]; 3 day): − 1.8 to − 2.0
- Mean change in RR interval, range over time points ([1]; 3 day): − 102.5 to − 30.4
- Patients with QTcF increase > 30 ms at any time during treatment ([1]; 3 day): 1 (4.8) n (%)
- Patients with QTcF increase > 60 ms at any time during treatment ([1]; 3 day): 0 n (%)
- Patients with QTcF value > 450 ms and increase > 30 ms ([1]; 3 day): 0 n (%)
- Patients with QTcF value > 450 ms at any time during treatment ([1]; 3 day): 0 n (%)
- Patients with QTcF value > 480 ms at any time during treatment ([1]; 3 day): 0 n (%)
- Patients with QTcF value > 500 ms and increase > 60 ms ([1]; 3 day): 0 n (%)
- Patients with QTcF value > 500 ms at any time during treatment ([1]; 3 day): 0 n (%)
- Adverse drug reactions to adavosertib monotherapy (patients): include QTc prolongation
- Patients with QTcF > 450 ms [2]: No patient
- Patients with increase in QTcF of > 60 ms [2]: No patient
- AUC0–12 [3]: 8.1 µM·h
- CLss/F, arithmetic mean (SD) ([4]; day 3): 43.2 L/h
- CLss/F, median ([4]; day 3): 41.5 L/h
- AUC0–12, median ([4]; human, in vivo): 5.383 µM·h
- Cavg, arithmetic mean (SD) ([4]; human, in vivo): 944.8 nM
- Cavg, geometric mean ([4]; human, in vivo): 901.2 nM
- Cavg, median ([4]; human, in vivo): 898.9 nM
- Cmin, arithmetic mean (SD) ([4]; human, in vivo): 517.7 nM
- Cmin, geometric mean ([4]; human, in vivo): 410.4 nM
- Cmin, median ([4]; human, in vivo): 499.0 nM
- Tmax ([4]; human, in vivo): 3 h
- tmax, median ([4]; human, in vivo): 2.5 h
- Accumulation for AUC0–12 over 2.5 days of bid dosing [4, 9]: approximately 2.3 fold
- Accumulation for Cmax over 2.5 days of bid dosing [4, 9]: ~2.1 fold
- AUC(0-t) ([4]; human, in vivo, AUC0–12, arithmetic mean (SD)): 11.3 µM·h
- AUC(0-t) ([4]; human, in vivo, AUC0–12, median): 10.6 µM·h
- Cmax ([4]; human, in vivo, arithmetic mean (SD)): 1500 nM
- Cmax ([4]; human, in vivo, median): 1520 nM
- AUC(0-t) ([4]; human, in vivo, po, 225 mg, AUC0–12, geometric mean): 4.94 µM·h
- Dose proportionality of exposure ([5]; qd dosing, between 200 and 300 mg, single and multiple doses, preliminary): exposure increased more than dose proportionally
- Maximum tolerated dose ([5]; twice daily (bid) over 2.5 days per week per 21-day cycle): 225 mg
- Causally related AEs of any grade: Anemia [6]: 1 (4.8) Number of patients (%)
- Causally related AEs of any grade: Constipation [6]: 1 (4.8) Number of patients (%)
- Causally related AEs of any grade: Decreased appetite [6]: 1 (4.8) Number of patients (%)
- Causally related AEs of any grade: Diarrhea [6]: 6 (28.6) Number of patients (%)
- Causally related AEs of any grade: Vomiting [6]: 2 (9.5) Number of patients (%)
- Causally related grade ≥3 AEs: Anemia [6]: 1 (4.8) Number of patients (%)
- Causally related grade ≥3 AEs: Constipation [6]: 0 Number of patients (%)
- Causally related grade ≥3 AEs: Decreased appetite [6]: 0 Number of patients (%)
- Causally related grade ≥3 AEs: Diarrhea [6]: 1 (4.8) Number of patients (%)
- Causally related grade ≥3 AEs: Nausea [6]: 1 (4.8) Number of patients (%)
- Causally related grade ≥3 AEs: Vomiting [6]: 1 (4.8) Number of patients (%)
- Causally related AEs of any grade: Any AE ([6]; 2.5 days): 11 (52.4) Number of patients (%)
- Causally related AEs of any grade: Nausea ([6]; 2.5 days): 6 (28.6) Number of patients (%)
- Causally related grade ≥3 AEs: Any AE ([6]; 2.5 days): 2 (9.5) Number of patients (%)
- Patients who discontinued treatment because of AEs ([6]; 2.5 days): 9.5%
- Patients with AEs ([6]; 2.5 days): 76.2%
- Patients with CTCAE grade 3 anemia ([6]; 2.5 days): 4.8%
- Patients with CTCAE grade 3 diarrhea ([6]; 2.5 days): 4.8%
- Patients with CTCAE grade 3 hypotension ([6]; 2.5 days): 4.8%
- Patients with CTCAE grade 3 nausea ([6]; 2.5 days): 4.8%
- Patients with a serious AE (vomiting, not considered drug related) ([6]; 2.5 days): 4.8%
- Patients with diarrhea (any causality) ([6]; 2.5 days): 33.3%
- Patients with nausea (any causality) ([6]; 2.5 days): 33.3%
- Patients with treatment-related AEs ([6]; 2.5 days): 52.4%
- Patients with treatment-related anemia ([6]; 2.5 days): 4.8%
- Patients with treatment-related constipation ([6]; 2.5 days): 4.8%
- Patients with treatment-related decreased appetite ([6]; 2.5 days): 4.8%
- Patients with treatment-related diarrhea ([6]; 2.5 days): 28.6%
- Patients with treatment-related nausea ([6]; 2.5 days): 28.6%
- Patients with treatment-related vomiting ([6]; 2.5 days): 9.5%
- Patients with vomiting (any causality) ([6]; 2.5 days): 23.8%
- Total number of treatment-related AEs ([6]; 2.5 days): 17
- Day effect estimate, concentration–ΔQTcF model [7]: −1.6
- Intercept estimate, concentration–ΔQTcF model [7]: −2.4
- Upper limits of predicted 90% CIs for ΔQTcF, sensitivity analysis [7]: < 1.5 ms
- AEs with an outcome of death [8]: No AEs with an outcome of death

Structure (SMILES): CN[C@H]1CC[C@@H](c2ccc(Cl)c(Cl)c2)c2ccccc21 [sertraline]
- Risk of TdP (QTc interval): conditional risk of TdP

Reference: publication PMC10326086 (Cancer Chemotherapy and Pharmacology, 2023)
